Laboratory results taken from the supplement of paper PMC12137928.
Structures can show the parent of a compound that is named as a salt.

System: HCT116
Settings: 72 h
How it was run: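 Luminescence was read with CellTiter-Glo in HCT116 cells seeded at 250 per well in 1536-well plates. Signals were scaled between vehicle at 0% and positive control at -100%, then pattern-corrected. IC50 and maximal efficacy were obtained by fitting a four-parameter Hill equation.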

SMILES	IC50 cell viability (ICRF193 0 nM)	IC50 cell viability (ICRF193 200 nM)
CC1=C(/C=C/C(C)=C/C=C/C(C)=C/CO)C(C)(C)CCC1 [RETINOL]	> 45.8 µM	> 45.8 µM
C[N+](C)(C)CCO.[Cl-] [Choline Chloride]	> 45.8 µM	> 45.8 µM
Cc1ccc(N(CC2=NCCN2)c2cccc(O)c2)cc1 [Phentolamine mesilate]	> 45.8 µM	> 45.8 µM
CCCCCCCCCCCCCCCCCC(=O)OCC(C)O (configuration not stated) [Octadecanoic acid, monoester with 1,2-propanediol]	> 45.8 µM	> 45.8 µM
C[C@H]1C[C@@H]2[C@H]([C@@H](O)C[C@@]3(C)[C@H]2CC[C@]3(O)C(=O)CO)[C@@]2(C)C=CC(=O)C=C12 [Methylprednisolone]	> 45.8 µM	> 45.8 µM
C=CCN1CCc2nc(N)sc2CC1 [Talipexole]	> 45.8 µM	> 45.8 µM
CC(CN(C)C)CN1c2ccccc2CCc2ccccc21 (configuration not stated) [Trimipramine maleate]	> 45.8 µM	> 45.8 µM
COc1cc(C)nc(-n2nc(C)cc2OC)n1 [Epirizole]	> 45.8 µM	> 45.8 µM
CN1C(=O)OC(C)(C)C1=O [Trimethadione]	> 45.8 µM	> 45.8 µM
Nc1nc(CC(=O)Nc2ccc(CCNC[C@H](O)c3ccccc3)cc2)cs1 [Mirabegron]	> 45.8 µM	> 45.8 µM
C[N+](C)(C)CCOP(=O)(O)OP(=O)([O-])OC[C@H]1O[C@@H](n2ccc(N)nc2=O)[C@H](O)[C@@H]1O [CITICOLINE]	> 45.8 µM	> 45.8 µM
CN1CCC(=C2c3ccccc3CCc3sccc32)CC1 [Pizotifen]	> 45.8 µM	> 45.8 µM
CNC(=O)Oc1ccc2c(c1)[C@]1(C)CCN(C)[C@@H]1N2C [Physostigmine]	> 45.8 µM	> 45.8 µM
C[C@@H]1C[C@H]2[C@@H]3CCC4=CC(=O)C=C[C@]4(C)[C@@]3(F)[C@@H](O)C[C@]2(C)[C@H]1C(=O)CO [Desoximetasone]	> 45.8 µM	> 45.8 µM
OC(c1ccccc1)(c1ccccc1)C12CC[N+](CCOCc3ccccc3)(CC1)CC2 [Umeclidinium bromide]	> 45.8 µM	> 45.8 µM
O=c1[nH]c(=O)n(C2CCCO2)cc1F (configuration not stated) [Tegafur]	> 45.8 µM	> 45.8 µM
O=C(O[C@H]1C[C@H]2CC[C@@H](C1)[N+]21CCCC1)C(O)(c1ccccc1)c1ccccc1 [Trospium chloride]	> 45.8 µM	> 45.8 µM
CCN(CC)CCOc1ccccc1C(=O)CCc1ccccc1 [Etafenone]	> 45.8 µM	> 45.8 µM
CNC(=O)c1c(I)c(NC(=O)CCCCC(=O)Nc2c(I)c(C(=O)O)c(I)c(C(=O)NC)c2I)c(I)c(C(=O)O)c1I [Iocarmic acid]	> 45.8 µM	> 45.8 µM
CC(=O)N[C@@H](CS)C(=O)O [Acetylcysteine]	> 45.8 µM	> 45.8 µM
C#C[C@]1(OC(C)=O)CC[C@H]2[C@@H]3CCC4=CC(=O)CC[C@@H]4[C@H]3CC[C@@]21C [NORETHINDRONE ACETATE]	> 45.8 µM	> 45.8 µM

SMILES	IC50 cell viability (ICRF193 0 nM)	IC50 cell viability (ICRF193 200 nM)
N[C@@H](CSCC(=O)O)C(=O)O [Carbocysteine]	> 45.8 µM	> 45.8 µM
C[C@]12CCC(=O)C=C1CC[C@@H]1[C@@H]2[C@@H](O)C[C@@]2(C)[C@H]1CC[C@]2(O)C(=O)COP(=O)(O)O [Hydrocortisone Sodium Phosphate]	> 45.8 µM	> 45.8 µM
CC(=O)c1ccc2c(c1)N(CCCN1CCN(CCO)CC1)c1ccccc1S2 [Acetophenazine Maleate]	> 45.8 µM	> 45.8 µM
CC(CNC1CCCCC1)OC(=O)c1ccccc1 (configuration not stated) [Hexylcaine hydrochloride]	> 45.8 µM	> 45.8 µM
CCOC(=O)NNc1ccc(N(CC)CC(C)O)nn1 (configuration not stated) [Cadralazine]	> 45.8 µM	> 45.8 µM
C=C(C)[C@H]1CC=C(C)CC1 [d-LIMONENE]	> 45.8 µM	> 45.8 µM
CC[C@@H]1C(=O)OC[C@@H]1Cc1cncn1C [Pilocarpine]	> 45.8 µM	> 45.8 µM
CCN(CC)C(=O)C1(c2ccccc2)CC1CN (configuration not stated) [Milnacipran hydrochloride]	> 45.8 µM	> 45.8 µM
O=NN(CCCl)C(=O)NCCCl [Carmustine]	> 45.8 µM	> 45.8 µM
NCCC(O)(P(=O)(O)O)P(=O)(O)O [Pamidronic acid]	> 45.8 µM	> 45.8 µM
CCOC(=O)OCC/C(SC(=O)OCC)=C(\C)N(C=O)Cc1cnc(C)nc1N [Dicethiamine hydrochloride]	> 45.8 µM	> 45.8 µM
CCOC(=O)[C@H](CS)NCCN[C@@H](CS)C(=O)OCC [Bicisate dihydrochloride]	> 45.8 µM	> 45.8 µM
Cc1ncsc1CCCl [Clomethiazole]	> 45.8 µM	> 45.8 µM
Cc1ncc(CSSCc2cnc(C)c(O)c2CO)c(CO)c1O [Pyrithioxin dihydrochloride]	> 45.8 µM	> 45.8 µM
NC(=O)CC[C@@H](N)C(=O)O [D-Glutamine]	> 45.8 µM	> 45.8 µM
CCCCCCCCCCCCCCCC(=O)OC(C)C [Hexadecanoic acid, 1-methylethyl ester]	> 45.8 µM	> 45.8 µM
CO/N=C(\C(=O)N[C@@H]1C(=O)N2C(C(=O)O)=C(CSC(=O)c3ccco3)CS[C@H]12)c1csc(N)n1 [CEFTIOFUR HYDROCHLORIDE]	> 45.8 µM	> 45.8 µM
Nc1nc(O)c2ncn(CCC(CO)CO)c2n1 [Penciclovir]	> 45.8 µM	> 45.8 µM
Nc1nc2c(ncn2COC(CO)CO)c(=O)[nH]1 [Ganciclovir]	> 45.8 µM	> 45.8 µM
CN(C)CCn1nnnc1SCC1=C(C(=O)O)N2C(=O)[C@@H](NC(=O)Cc3csc(N)n3)[C@H]2SC1 [Cefotiam hydrochloride]	> 45.8 µM	> 45.8 µM
O=C(O)/C=C\C(=O)O [Maleic acid]	> 45.8 µM	> 45.8 µM

Next, values leading:

IC50 cell viability (ICRF193 0 nM)	IC50 cell viability (ICRF193 200 nM)	SMILES
> 45.8 µM	> 45.8 µM	O=C(CCCN1CCC(O)(c2ccc(Cl)cc2)CC1)c1ccc(F)cc1 [Haloperidol]
> 45.8 µM	> 45.8 µM	Cc1[nH]c(=O)c(C#N)cc1-c1ccncc1 [Milrinone]
> 45.8 µM	> 45.8 µM	CC(=O)Nc1ccc(S(=O)(=O)Nc2ccc([N+](=O)[O-])cc2)cc1 [Sulfanitran]
> 45.8 µM	> 45.8 µM	CN1CCN(C2=Nc3ccccc3Oc3ccc(Cl)cc32)CC1 [Loxapine succinate]
> 45.8 µM	> 45.8 µM	CC(C)c1ccc2oc3nc(N)c(C(=O)O)cc3c(=O)c2c1 [Amlexanox]
> 45.8 µM	> 45.8 µM	NS(=O)(=O)c1ccc(Cl)c(S(N)(=O)=O)c1 [Clofenamide]
> 45.8 µM	> 45.8 µM	CC(=O)O[C@]1(C(C)=O)CC[C@H]2[C@@H]3C=C(Cl)C4=CC(=O)[C@@H]5C[C@@H]5[C@]4(C)[C@H]3CC[C@@]21C [Cyproterone acetate]
> 45.8 µM	> 45.8 µM	O=C(O)Cc1cccc2ccccc12 [1-Naphthaleneacetic acid]
> 45.8 µM	> 45.8 µM	O=C(O)CCn1c2c(c3ccccc31)C[C@H](NS(=O)(=O)c1ccc(F)cc1)CC2 [Ramatroban]
> 45.8 µM	> 45.8 µM	COc1cc(NS(=O)(=O)c2ccc(N)cc2)nc(C)n1 [Sulfamethomidine]
> 45.8 µM	> 45.8 µM	Nc1ccc(C(=O)O)cc1 [4-Aminobenzoic acid]
> 45.8 µM	> 45.8 µM	CN(C)C(=O)COC(=O)Cc1ccc(OC(=O)c2ccc(NC(=N)N)cc2)cc1 [Camostat]
> 45.8 µM	> 45.8 µM	Cn1c(=O)cc(N2CCC[C@@H](N)C2)n(Cc2ccccc2C#N)c1=O [ALOGLIPTIN BENZOATE]
> 45.8 µM	> 45.8 µM	O=C(O)CCC(=O)c1ccc(-c2ccccc2)cc1 [Fenbufen]
> 45.8 µM	> 45.8 µM	Cc1cn([C@H]2C=C[C@@H](CO)O2)c(=O)[nH]c1=O [Stavudine]
> 45.8 µM	> 45.8 µM	Cc1cc2c(cc1S(N)(=O)=O)S(=O)(=O)CCC2 [Meticrane]
> 45.8 µM	> 45.8 µM	O=c1n(CCCN2CCN(c3cccc(Cl)c3)CC2)nc2ccccn12 [Trazodone hydrochloride]
> 45.8 µM	> 45.8 µM	CC1=C(CC(=O)O)c2cc(F)ccc2/C1=C\c1ccc([S+](C)[O-])cc1 (configuration not stated) [Sulindac]
> 45.8 µM	> 45.8 µM	CNS(=O)(=O)CCc1ccc2[nH]cc(C3CCN(C)CC3)c2c1 [Naratriptan hydrochloride]
> 45.8 µM	> 45.8 µM	N[C@@H](Cc1cc(I)c(Oc2ccc(O)c(I)c2)c(I)c1)C(=O)O [Liothyronine Sodium]
> 45.8 µM	> 45.8 µM	CCCCNc1ccc(C(=O)OCCN(C)C)cc1 [Tetracaine hydrochloride]
> 45.8 µM	> 45.8 µM	CN(CCCCCCN(C)C(=O)Oc1ccc[n+](C)c1)C(=O)Oc1ccc[n+](C)c1 [Distigmine Bromide]
> 45.8 µM	> 45.8 µM	O=S(=O)(O)c1ccc2[nH]c(-c3ccccc3)nc2c1 [Ensulizole]
> 45.8 µM	> 45.8 µM	CCOc1ccc2ccccc2c1C(=O)N[C@@H]1C(=O)N2[C@@H]1SC(C)(C)[C@@H]2C(=O)O [Nafcillin sodium monohydrate]
